Tests used:
SRC = assay: Induction of pY416 of SRC by INT-777 and BA treatments (immunoblotting); type: cell-based; settings: HEK293 cells, treatment for 1 hours
Description: G. Induction of pY416 of SRC by INT-777 and BA treatments. HEK293 cells were treated with DMSO, INT-777 or the indicated BAs for 1 hours, followed by immunoblotting analysis with the indicated antibodies.
(§1) Cells were lysed with RIPA buffer plus complete protease inhibitors and 20 mM NEM, and lysates were sonicated for 1 min. The lysates were centrifuged at 14000 rpm for 20 min at 4° C. The supernatants were incubated with respective antibodies at 4° C. overnight before protein G beads were added for 2 h. The beads were washed with cold PBS plus 0.5 M NaCl for three times followed by an additional wash with PBS. Proteins were separated by 8% SDS-PAGE, followed by immunoblot analysis with the indicated antibodies.

TGR5 = settings: Tgr5+/+ macrophages (BMDMs); infected half an hour, then treatment for 6 hours
Raw264.7 cells [1] = assay: Induction of type I IFNs and other antiviral genes by BAs (qPCR); type: cell-based; settings: indicated concentrations of BAs
Description: D. Induction of type I IFNs and other antiviral genes by BAs. Raw264.7 cells were treated by the indicated concentrations of the indicated BAs, followed by qPCR analysis of the expression of the indicated genes. L. Induction of type I IFNs and other antiviral genes by BAs. Raw264.7 cells were treated with LCA (200 μM) or CDCA (200 μM) for the indicated times, followed by qPCR analysis of the expression of the indicated genes.

Raw264.7 cells [2] = assay: Induction of phosphorylation of TBK1 and IRF3 by BAs (immunoblotting); type: cell-based; settings: indicated concentrations of CDCA and LCA
Description: as §1, with “E. Induction of phosphorylation of TBK1 and IRF3 by BAs. Raw264.7 cells were treated by the indicated concentrations of CDCA and LCA, followed by immunoblotting analysis with the indicated antibodies. Cells” for “Cells”

VSV-GFP = type: cell-based
monocytes = monocytes in vitro; cited from earlier work
THP1 cells = assay: Effects of kinase inhibitors on virus-induced expression of BA metabolism genes and IFNB1 (qPCR); type: cell-based, human; settings: inhibitor treatment, then HSV-1 or SeV for 4 hours

Row | SMILES | phosphorylation of SRC at Y416 (SRC) | HSV-1- and SeV-induced transcription of Ifnb1 (TGR5) | transcription of downstream innate immunity genes including IFNB1, CXCL10 and ISG56 (Raw264.7 cells [1]) | phosphorylation of TBK1 and IRF3 (Raw264.7 cells [2]) | VSV-GFP replication (VSV-GFP) | production of interleukin-1, interleukin-6 and tumor necrosis factor-α (monocytes) | HSV-1- and SeV-induced transcription of CYP7A1, CYP7B1, CYP27A1 and OATP genes (THP1 cells)
1 | CC[C@H]1[C@@H](O)[C@@H]2[C@H](C[C@H](O)[C@]3(C)[C@@H]([C@H](C)C[C@H](C)C(=O)O)CC[C@@H]23)[C@@]2(C)CC[C@@H](O)C[C@@H]12 [INT-777] | induced phosphorylation | potentiated |  |  |  |  | 
2 | C[C@H](CCC(=O)O)[C@H]1CC[C@H]2[C@@H]3[C@H](O)C[C@@H]4C[C@H](O)CC[C@]4(C)[C@H]3CC[C@]12C [CDCA, chenodeoxycholic acid] |  | potentiated | potently induced | induced phosphorylation | dramatically inhibited | inhibits | 
3 | Cc1ccc2nc(NCCN)c3ncc(C)n3c2c1 [BMS-345541] |  |  |  |  |  |  | abolished

Reference: patent publication US20210346401A1, “REGULATOR OF TGR5 SIGNALING AS IMMUNOMODULATORY AGENT” (YICHANG HUMANWELL PHARMACEUTICAL CO., LTD, priority 2018, published 2021)
